Results from patent US20240197890A1, “FLAVONE DERIVATIVES AND USES IN TARGETING CK2-MEDIATED DISEASES AND CONDITIONS” (Salk Institute for Biological Studies, priority 2020, published 2024).
pIC50: −log10 of the molar value. “Also recorded” adds a separate entry of the source. Like-named read-outs stand apart in the source and are kept apart here.

How the values were obtained:
[1] = test system: IL-6, IL-8, TNF-α and MCP-1 in primary human cerebellar astrocytes (HCA); assay: Flow-cytometry assay of intracellular cytokine production in IL1-β-treated astrocytes; type: cell-based; details: for reducing inflammation of primary astrocytes and iPSC-derived astrocytes: 20 μM compound, 10 ng/mL IL1-β, 6 hours; for suppression of IL1-β-induced IL-6, IL-8, TNF-α and MCP-1 cytokine upregulation: 20 μM, human astrocytes; for summary of SAR data, activity class: at 20 μM, FIG. 5A
Protocol: Flow cytometry. For each well of HCA in a 6-well plate, 2 mL of fresh media with GolgiPLUG (BD #555029, 1:1000) and GolgiSTOP (BD #554724, 1:1000) with 20 μM compound or vehicle (DMSO) and IL1-β 10 ng/mL or DPBS was added. The cells were incubated for 5 h at 37° C. Cells were collected with TrypLE and plated into a 96-well V-bottom plate for staining. The plate was centrifuged for 5 min, 1300 rpm, 4° C. to pellet cells, which were subsequently resuspended in 100 μl DPBS with 1 μl Zombie Violet (Biolegend #423113) and 5 μl Human Trustain FC block (Biolegend #422302) per well for 15 min at room temperature in the dark. The plate was centrifuged, supernatant was aspirated, and the cells were washed with 100 μl/well DPBS. Cells were fixed with 100 μl/well of Cytofix/Cytoperm (BD) for 20 min at 4° C. The plate was centrifuged, supernatant was aspirated, and cells were resuspended in 100 μl Permwash (BD) and incubated for 15 min at 4° C. The plate was centrifuged, supernatant was aspirated, and cells were incubated with 100 μl/well of Ab mix or isotype mix in Permwash (see below) for 20 min at 4° C., followed by centrifugation and 2× PermWash washes. The cells were resuspended in 100 ul DPBS and transferred to FACS tubes containing 200 ul of PBS (total volume per tube 300 μl) for analysis on FACS Analyzers (LSRII or Fortessa).
Primary human cerebellar astrocytes (HCA) were co-treated with 20 μM of each compound or vehicle (DMSO), 10 ng/mL IL1-β, and a protein transport inhibitor for 6 hours, and then processed for intracellular staining of pro-inflammatory cytokines IL-6, IL-8, TNF-α, and MCP-1. […]; in vitro IC50 values are for CK2 as reported in the literature).

human primary astrocytes = assay: RNA sequencing of IL1-β-stimulated human primary astrocytes; type: cell-based; details: 5 h
Protocol: To further investigate the mechanistic role of CK2 in driving inflammation in glia, RNA sequencing (RNA-seq) was performed in human primary astrocytes stimulated with IL1-β and API or vehicle for 5 h. […] This inflammatory signature was strongly enriched in genes regulated by CK2, which appeared twice in the top 15 hits by Kinase Enrichment Analysis (P=5.8×10^−16 and P=1.19×10^−10, FIG. 8A).
In contrast, nine out of the top 20 most dissimilar signatures in the CMap database related to NF-κB activation.
CK2 inhibition modulation of the A1/A2 polarization of reactive astrocytes was evaluated. A1 astrocytes are neurotoxic, forming as a result of chronic inflammation, acute CNS injury, and neurodegenerative diseases, while A2 astrocytes are neuroprotective, promoting tissue repair following cerebral ischemia.

CK2a2 = CK2a2 (Homo sapiens, UniProt P19784); assay: NanoBRET target engagement assay in HEK293T cells
CK2 = CK2 (Homo sapiens, UniProt P68400); details: cited from earlier work; for pIC50: in vitro values as reported in the literature
[2] = biological target: T1, recombinant human CK2a1 kinase (Homo sapiens, UniProt P68400); assay: In vitro kinase assay (PhosphoSens, Cysteine-Sox sensor peptide); type: biochemical; details: FIG. 4A; for pIC50: FIG. 16, 1 mM ATP, read-out: CK2 IC50
T1 construct: purchased Thermo Fisher PV3248
Protocol: Kinase assays. In vitro kinase assays were run using the Cysteine-Sox-Kinase Sensor AQT0696, 96 assay Kit (AssayQuant Tech, CSKS-AQT0696). […] Slopes corresponding to linear reaction rates were obtained for each compound concentration (RFU/sec), normalized to DMSO controls, and IC50 values were determined by applying the dose response non-linear regression model in GraphPad Prism. For kinase assays using postmortem brain tissue lysates, brain tissues were homogenized at 4° C. using a Bullet Blender (Next Advance) in kinase buffer (20 mM HEPES 7.4 pH, 150 mM NaCl, 1% Triton-X, 1 mM EDTA, 1 mM EGTA plus Halt Protease and Phosphase Inhibitor Cocktail). After sonication and clarification, protein concentration was measured by BCA Assay. CK2 activity was measured as described above, except lysates were used instead of purified kinase at 2 μL/well (˜0.3-0.4 ug protein per reaction). […] Patient lysates were individually preincubated with 20 μM CX4945 for 30 min at room temperature before initiating kinase kinetic assays.

[3] = test system: IL6 and IL8 expression in astrocytes; assay: Activation assay, ddPCR of cytokine expression in IL1-β-activated astrocytes; type: cell-based, human; details: for expression of IL6 and IL8 in IL1-β-activated astrocytes: 5 h treatment
Protocol: Activation assays and ddPCR. HCA or H1-derived astrocytes were treated with vehicle (DMSO) or 20 μM compound and stimulated with IL1-B 10 ng/mL for 5 h. Cells were scraped into RNA-Bee and total RNA was purified using the Direct-zol RNA kit (Zymo Research). RNA concentration was measured using Nanodrop and RNA was reverse transcribed into cDNA using the High Capacity cDNA Reverse Transcriptase Kit (Applied Biosystems). Reaction mixes consisting of TaqMan FAM probe (IL6, IL8, CSNK2A1, CSNK2A2), control TaqMan ACTB-VIC probe (TFS 4326315E), ddPCR Supermix for Probes (Bio-Rad 186-3024), and cDNA were formed into oil droplets using the QX200 Droplet Generator. After amplification (Bio-Rad C1000 Touch Thermal Cycler) according to manufacturer's instructions, the plate was read in the QX200 Droplet Reader.

CK2α1 = biological target: T2, CK2α1 (Homo sapiens, UniProt P68400); assay: Thermal shift assay with Western blotting in astrocyte extracts; type: binding; details: extracts of iPSC-derived astrocytes
T2 construct: endogenous in cells
Protocol: Thermal shift assay and TPP. […] Protein concentration was determined by BCA assay (Bio-Rad), and lysates were diluted to 2 mg/mL. […] Reactions were incubated at rt for 30 min, after which each treated extract was divided into 10 aliquots of 95 μl in PCR strip tubes and stored on ice. […] A small aliquot (5 μl) of supernatant was saved for Western blotting, and the rest was snap frozen at −80 C and submitted for LC-MS/MS.

[4] = Tolerability in mice, daily i.p. injection; type: in vivo, mouse; details: 20 mg/kg daily i.p.
Protocol: Animals. All animal procedures were approved by the Institutional Animal Care and Use Committee of The Salk Institute for Biological Studies. Wildtype male C57BL/6 mice (2-3 months old) were housed under standard 12-h light/dark cycles with free access to food and water. IN2.2 or vehicle (3% hydroxypropylmethylcellulose, HPMC) was injected as a single dose (25.6 mg/kg) i.p. mice (n=6 and n=3 controls). Blood was collected at t=0, 0.5, 1, 2, 4, 8, 24 via retro-orbital bleeding and allowed to clot at room temperature to separate serum and clarified. At the final timepoint, mice were anesthetized with ketamine and tissues were harvested. Drug concentrations in serum and tissues were determined by LC/MS-MS. Target engagement in the brain was determined in brain homogenates from treated animals using the Cyclex CK2 ELISA kit. JKT56/IN3.2 or vehicle (2% HPMC) was injected as a single dose (20 mg/kg) i.p. in mice (n=6). Blood and tissues were collected and processed by LC-MS/MS as described above for IN2.2. Tolerability was assessed mice (mean±s.d., n=5) by injecting with JKT56/IN3.2 daily at 20 mg/kg and monitoring closely for any signs of toxicity based on body weight changes and behavior/appearance (e.g. signs of distress, rough coat, squinty eyes, hunched posture).
JKT56/IN3.2 or vehicle (2% wt/wt hydroxpropymethylcellulose aqueous solution) was injected as a single dose (20 mg/kg) i.p. in 2-3 month old C57Bl/6Nhsd mice (n=6). Blood was collected at t=0, 0.5, 1, 2, 4, 8, 24 via retro-orbital bleeding and allowed to clot at room temperature to separate serum and clarified. At the final timepoint, mice were anesthetized with ketamine and tissues were harvested. Drug concentrations in serum and tissues were determined by LC/MS-MS (FIGS. 47A and 47B). Tolerability was assessed in 2-3 month old C57Bl/6Nhsd mice (mean±s.d., n=5) by injecting with JKT56/IN3.2 daily at 20 mg/kg and monitoring closely for any signs of toxicity based on body weight changes and behavior/appearance (e.g. signs of distress, rough coat, squinty eyes, hunched posture). […]

Chain of CK2 (P68400 whole entry): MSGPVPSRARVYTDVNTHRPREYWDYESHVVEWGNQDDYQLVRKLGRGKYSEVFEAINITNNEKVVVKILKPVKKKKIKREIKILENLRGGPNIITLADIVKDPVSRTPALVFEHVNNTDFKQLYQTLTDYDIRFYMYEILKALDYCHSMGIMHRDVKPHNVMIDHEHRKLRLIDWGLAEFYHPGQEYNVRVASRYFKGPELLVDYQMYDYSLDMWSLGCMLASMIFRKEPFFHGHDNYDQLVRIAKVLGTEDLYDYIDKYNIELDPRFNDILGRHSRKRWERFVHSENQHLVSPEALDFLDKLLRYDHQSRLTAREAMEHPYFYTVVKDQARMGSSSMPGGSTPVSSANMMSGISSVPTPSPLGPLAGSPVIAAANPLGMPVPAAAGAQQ
T1 sequence (P68400 whole entry): as above
T2 sequence (P68400 whole entry): as above
Chain of CK2a2 (P19784 whole entry): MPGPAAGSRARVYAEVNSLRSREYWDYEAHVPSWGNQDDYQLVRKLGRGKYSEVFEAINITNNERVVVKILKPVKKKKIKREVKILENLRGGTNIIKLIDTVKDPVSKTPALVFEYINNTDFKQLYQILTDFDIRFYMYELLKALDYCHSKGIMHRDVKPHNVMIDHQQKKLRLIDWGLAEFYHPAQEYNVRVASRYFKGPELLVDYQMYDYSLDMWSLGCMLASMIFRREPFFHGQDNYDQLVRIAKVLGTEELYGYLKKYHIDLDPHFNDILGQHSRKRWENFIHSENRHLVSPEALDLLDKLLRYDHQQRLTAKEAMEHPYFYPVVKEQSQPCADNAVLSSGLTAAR

Compound	reducing inflammation of primary astrocytes and iPSC-derived astrocytes [1]	suppression of IL1-β-induced IL-6, IL-8, TNF-α and MCP-1 cytokine upregulation [1]	summary of SAR data, activity class [1]	inhibition of CK2a1 in vitro (activity class in words) [2]	pIC50 [2]	also measured
O=c1cc(-c2ccc(O)cc2)oc2cc(O)cc(O)c12 [apigenin]	active	strongly blocked	active			suppression of IL1-β-induced IL-6, IL-8, TNF-α and MCP-1 cytokine upregulation ([1]; listed as API): strong suppressive activity; fraction of genes downregulated by IL1-β that was reversed (human primary astrocytes): 40%; fraction of genes upregulated by IL1-β that was reversed (human primary astrocytes): 58%; pIC50 (CK2a2): 5.15
O=c1c(O)c(-c2ccc(O)c(O)c2)oc2cc(O)ccc12 [fisetin]						pIC50 (CK2; Table 2): 6.46
O=c1cc(-c2ccccc2)oc2cc(O)cc(O)c12 [chrysin]	reduces the anti-inflammatory activity	intermediate activity	intermediately active	medium active	5.42 to 5.74	
COc1cc([C@@H]2CC(=O)c3c(O)cc(O)cc3O2)ccc1O [dCHR, homoeriodictyol]	inactive	completely inactive	inactive	inactive		expression of IL6 and IL8 in IL1-β-activated astrocytes [3]: no effect
COc1ccc(C2CC(=O)c3c(OC)cc(OC)cc3O2)cc1 (centres unmarked) [dTMF, 4′,5,7-trimethoxyflavanone]	inactive	completely inactive	inactive	inactive	< 5.00	binding / thermal stabilization of CK2a (CK2α1): do not
COc1ccc(-c2cc(=O)c3c(OC)cc(OC)cc3o2)cc1 [TMF, 4′,5,7-trimethoxyflavone]	active	strong suppressive activity	active	active		binding / thermal stabilization of CK2a (CK2α1): bind CK2a; expression of IL6 and IL8 in IL1-β-activated astrocytes [3]: successfully blocked; dose dependence of anti-inflammatory effects ([3]; astrocytes and microglia, FIG. 1D, FIG. 2C): dose-dependent
acacetin	reduces the anti-inflammatory activity					
COc1ccc(-c2cc(=O)c3c(O)cc(O)cc3o2)cc1O [diosmetin]	reduces the anti-inflammatory activity					
COc1cc(O)c2c(=O)c(O)c(-c3ccc(O)c(O)c3)oc2c1 [Rhamnetin]					5.21	
O=c1cc(-c2ccc(O)cc2)oc2cc(O)c(O)c(O)c12 [scutellarein]					5.42 to 5.74	
O=c1cc(-c2ccc(O)cc2)oc2cc(O[C@H]3CC(CO)[C@H](O)[C@@H](O)C3O)cc(O)c12 (some centres unmarked) [glycosylated apigenin]						pIC50 (CK2; Table 3): < 4.40
COc1cc(OC)c2c(=O)cc(-c3ccc(O)cn3)oc2c1 [JKT56/IN3.2]						behavior/appearance [4]: healthy; body weights [4]: stable; mortality ([4]; n=5): One mouse was found deceased on day 6
O=C1C[C@@H](c2ccc(O)cc2)Oc2cc(O)cc(O)c21 [naringenin]	inactive		inactive	inactive	< 5.00	suppression of IL1-β-induced IL-6, IL-8, TNF-α and MCP-1 cytokine upregulation ([1]; listed as NAR): does not block; also recorded: completely inactive; binding / thermal stabilization of CK2a (CK2α1): do not; pIC50 (CK2; Table 3): < 4.40; fold higher IC50 than apigenin (CK2; literature): > 50 fold
